{"source": "patent US20160031909A1", "about": "“PORPHYRAZINE OPTICAL AND DUAL OPTICAL/ MR CONTRAST AND THERAPEUTIC AGENTS” (HOFFMAN/BARRETT, LLC, priority 2013, published 2016)", "test": "Ex vivo biodistribution by ICP-MS", "assay_type": "in vivo, athymic nude mice", "protocol": "Cu-Pz-Gd(III) was examined as a contrast agent in vivo in an orthotopic breast tumor model in athymic nude mice. MDA-MB-231 breast tumor cells expressing mCherry fluorescent protein were implanted in the mammary fat pad of mice and tumors were allowed to grow to about 5 mm in diameter at which time mice were treated with 450 nmol (50 mg/kg) Cu-Pz-Gd(III) together with saline treated control mice (FIG. 3A).\nImages were acquired at baseline, and 4, 24, and 48 hours after injection of 150 μL of imaging agent via the tail vein. One control animal was injected with saline; the remaining 9 animals were injected with 450 nmol Cu-Pz-Gd(III). Three animals were sacrificed after 4 hour, 24 hour, and 48 hour timepoints, respectively; the organs were collected for ICP-MS (described below) to measure biodistribution.\nMice were sacrificed by CO2 inhalation followed by cervical dislocation. Blood, urine (where possible), tumor, liver, kidney, spleen, heart, lungs, and samples of skin and skeletal muscle were collected for elemental analysis by ICP-MS as described below. In one additional mouse that was not treated with an imaging agent, the tumor was collected and fixed in 10% formalin for histological analysis. […]", "note": "Entries after “also recorded” stand apart in the source; their conditions may differ."}
{"substance": "Cu[Pz(C19H28N8O7Gd)2]. Pz=18,21-bis(2-(1H-1,2,3-triazole-4-yl) ethoxy)-tris-[1,4-dioxino[g,l,q](2R,3R)-2,3-dimethoxy-2,3-dimethyll 25H,27H-benzo[b]porphyrazine; C19H28N8O7Gd=N-methyl-2-aminoacetamide-4,7,10-tris(carboxymethyl)-1,4,7,10-tetraazacyclododecylgadolinium(III)) [Cu-Pz-Gd(III)]", "values": [{"measurement": "route of clearance", "setting": "biodistribution data by ICP-MS", "result": "rapidly cleared, primarily through the kidneys; also recorded: primarily through the kidneys and liver; also recorded: cleared through the kidneys and liver"}, {"measurement": "tumor accumulation", "setting": "ex vivo biodistribution study", "result": "accumulates in tumors"}]}
